Test results reported in patent US10851108B2, “Substituted bicyclic heterocyclic compounds” (BRISTOL-MYERS SQUIBB COMPANY, priority 2016, dated 2020).

Biological target: hROMK (human Kir1.1) (Homo sapiens (Human), UniProt P48048)
Assay: Thallium Flux Assay
Assay type: cell-based
Settings: CHO T-Rex hROMK stable cell line, 10-point concentration response; read-out: hROMK Th+ Flux IC50
Protocol: Solutions and reagents: Thallium flux assay was performed using FluxOR kit (F10017, Life Technologies). Loading buffer, assay buffer and stimulus buffer were prepared using kit components. HBSS (Hank's balanced salt solution, Cat #14025-092) was purchased separately from Life Technologies.
To prepare 10 ml of loading buffer: 10 μl of FluxOR dye (reconstituted in DMSO) was first added to 100 μl of powerload concentrate and this mix along with 100 μl of Probenicid (100×) was then added to 9.79 ml of HBSS. Assay buffer (10 ml) was prepared by addition of 2 ml of FluxOR chloride free buffer (5×), 100 μl of Probenicid (100×), and 0.2 ml of Ouabain (13.77 mM) to 7.7 ml of deionized water. Stimulus buffer was composed of 15 mM Tl2SO4, 0.75 mM K2SO4 in FluxOR chloride free buffer (diluted to 1× using deionized water). The final concentration of Tl2SO4 and K2SO4 in the assay plate was 3 mM and 0.15 mM, respectively.
Plating and induction of cells: The CHO T-Rex hROMK (human Kir1.1) stable cell line was maintained in Ham's F12 media supplemented with 10% FBS, 1% Penicillin-Streptomycin, 500 μg/ml Zeocin and 10 μg/ml Blasticidin at 37° C. in a 5% CO2 incubator. One day before the experiment, the cells were dissociated by incubation with Versene solution (15040-066, Life Technologies) for 10 minutes at 37° C. followed by addition of growth media. The cell suspension was centrifuged at 1200 rpm for 5 min. After discarding the supernatant, the cells were resuspended in fresh growth media and cell concentration was determined using a hemocytometer. Next, 0.5 μg/ml of Doxycycline was added to the cell suspension to induce hROMK channel expression and 50 μl (10,000 cells/well) of cell suspension was added to each well of a poly-D lysine coated 384 well black, optically clear bottom plate (6007718, Perkin Elmer). The assay plate was kept at 37° C. in a 5% CO2 incubator.
Assay protocol: On the day of experiment, media was removed and loading buffer was added (30 μl/well) to the assay plate. The cells were incubated in the loading buffer for 30 minutes at 37° C. The loading buffer was then replaced by assay buffer (30 μl/well) followed by addition of test compounds or controls. The cells were incubated with compounds for 30 minutes and the plate was then mounted on FlexStation (Molecular Devices) for fluorescence read out with excitation and emission wavelengths at 488 and 525 nm, respectively. Each well was read for 90 sec at 2 sec interval and the stimulus buffer was added after 20 seconds of baseline recording. The final DMSO concentration was either 0.5 or 1% in the assay plate. […] controls were defined by addition of DMSO or 3 μM of a standard ROMK inhibitor, respectively, to the wells instead of a test compound.
A 10-point concentration response curve was used to estimate the IC50 value of test compounds.
The data in Table 3 is reported with two significant figures.

hROMK (human Kir1.1), sequence (P48048 whole entry): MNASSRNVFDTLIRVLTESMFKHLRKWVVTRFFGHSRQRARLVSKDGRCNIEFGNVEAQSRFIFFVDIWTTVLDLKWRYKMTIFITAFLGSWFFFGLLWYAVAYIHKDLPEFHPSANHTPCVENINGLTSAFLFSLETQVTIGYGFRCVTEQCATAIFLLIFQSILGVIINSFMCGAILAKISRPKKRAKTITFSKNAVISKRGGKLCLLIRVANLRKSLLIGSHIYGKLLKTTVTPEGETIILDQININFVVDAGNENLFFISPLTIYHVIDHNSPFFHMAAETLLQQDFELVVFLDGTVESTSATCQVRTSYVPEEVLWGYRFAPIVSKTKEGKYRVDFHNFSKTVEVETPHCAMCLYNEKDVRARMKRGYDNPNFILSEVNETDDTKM

IC50	SMILES
740 nM	Cn1c(=O)oc2ccc(C(O)CN3CCc4nc(-n5ncc6c(C#N)cccc65)ncc4C3)cc21 (single isomer, unassigned) [Example 3-I, 1-(6-(2-hydroxy-2-(3-methyl-2-oxo-2,3-dihydrobenzo[d]oxazol-5-yl)ethyl)-5,6,7,8-tetrahydropyrido[4,3-d]pyrimidin-2-yl)-1H-indazole-4-carbonitrile]
200 nM	N#Cc1ccc(Nc2ccc3c(n2)CCN(CCc2ccc4c(c2)COC4=O)C3)cc1F [Example 7, 2-fluoro-4-((6-(2-(1-oxo-1,3-dihydroisobenzofuran-5-yl)ethyl)-5,6,7,8-tetrahydro-1,6-naphthyridin-2-yl)amino)benzonitrile]
320 nM	Cc1c(CN2CCc3cc(Nc4ccc5oc(=O)n(C)c5c4)ccc3C2)ccc2c1COC2=O [Example 14, 3-methyl-5-((2-((4-methyl-1-oxo-1,3-dihydroisobenzofuran-5-yl)methyl)-1,2,3,4-tetrahydroisoquinolin-6-yl)amino)benzo[d]oxazol-2(3H)-one]
495 nM	CCOC(=O)c1cnc2cnn(-c3ncc4c(n3)CCN(CC(O)c3ccc5c(c3C)COC5=O)C4)c2c1 (single isomer, unassigned) [Example 51-I, ethyl 1-(6-(2-hydroxy-2-(4-methyl-1-oxo-1,3-dihydroisobenzofuran-5-yl)ethyl)-5,6,7,8-tetrahydropyrido[4,3-d]pyrimidin-2-yl)-1H-pyrazolo[4,3-b]pyridine-6-carboxylate]
1030 nM	Cc1c(C(O)CN2CCc3nc(Nc4ccc5oc(=O)n(C)c5c4)ncc3C2)ccc2c1COC2=O (single isomer, unassigned) [Example 62-I, 5-((6-(2-hydroxy-2-(4-methyl-1-oxo-1,3-dihydroisobenzofuran-5-yl)ethyl)-5,6,7,8-tetrahydropyrido[4,3-d]pyrimidin-2-yl)amino)-3-methylbenzo[d] oxazol-2(3H)-one]
1600 nM	Cn1c(=O)oc2ccc(C(O)CN3CCc4nc(-n5ncc6c(C#N)cccc65)ncc4C3)cc21 (single isomer, unassigned) [Example 3-II, 1-(6-(2-hydroxy-2-(3-methyl-2-oxo-2,3-dihydrobenzo[d]oxazol-5-yl)ethyl)-5,6,7,8-tetrahydropyrido[4,3-d]pyrimidin-2-yl)-1H-indazole-4-carbonitrile]
2100 nM	Cc1c(C(O)CN2CCc3nc(-n4ccc5cc(C#N)cnc54)ncc3C2)ccc2c1COC2=O (single isomer, unassigned) [Example 44-I, 1-(6-(2-hydroxy-2-(4-methyl-1-oxo-1,3-dihydroisobenzofuran-5-yl)ethyl)-5,6,7,8-tetrahydropyrido[4,3-d]pyrimidin-2-yl)-1H-pyrrolo[2,3-b]pyridine-5-carbonitrile]
700 nM	Cc1c(C(O)CN2CCc3nc(-n4ncc5cc(C#N)ccc54)ncc3C2)ccc2c1COC2=O (single isomer, unassigned) [Example 50, 1-(6-(2-hydroxy-2-(4-methyl-1-oxo-1,3-dihydroisobenzofuran-5-yl)ethyl)-5,6,7,8-tetrahydropyrido[4,3-d]pyrimidin-2-yl)-1H-indazole-5-carbonitrile]
410 nM	Cc1c(C(O)CN2CCc3nc(-n4ncc5c(C#N)cccc54)ncc3C2)ccc2c1COC2=O (single isomer, unassigned) [Example 12-II, 1-(6-(2-hydroxy-2-(4-methyl-1-oxo-1,3-dihydroisobenzofuran-5-yl)ethyl)-5,6,7,8-tetrahydropyrido[4,3-d]pyrimidin-2-yl)-1H-indazole-4-carbonitrile]
850 nM	N#Cc1ccc2c(ccn2-c2ncc3c(n2)CCN(CC(O)c2ccc4c(c2)COC4=O)C3)c1 (single isomer, unassigned) [Example 17-II, 1-(6-(2-hydroxy-2-(1-oxo-1,3-dihydro-isobenzofuran-5-yl)ethyl)-5,6,7,8-tetrahydropyrido[4,3-d]pyrimidin-2-yl)-1H-indole-5-carbonitrile]
380 nM	Cc1c(C(O)CN2CCc3nc(-n4ccc5cc(C#N)ccc54)ncc3C2)ccc2c1COC2=O (single isomer, unassigned) [Example 16-II, 1-(6-(2-hydroxy-2-(4-methyl-1-oxo-1,3-dihydroisobenzofuran-5-yl)ethyl)-5,6,7,8-tetrahydropyrido[4,3-d]pyrimidin-2-yl)-1H-indole-5-carbonitrile]
568 nM	Cc1c(C(O)CN2CCc3nc(Nc4cncc(C#N)c4)ncc3C2)ccc2c1COC2=O (single isomer, unassigned) [Example 61-I, 5-((6-(2-hydroxy-2-(4-methyl-1-oxo-1,3-dihydroisobenzofuran-5-yl)ethyl)-5,6,7,8-tetrahydropyrido[4,3-d]pyrimidin-2-yl)amino)nicotinonitrile]
1000 nM	Cn1c(=O)oc2ccc(C(O)CN3CCc4nc(-n5ccc6c(C#N)cccc65)ncc4C3)cc21 (single isomer, unassigned) [Example 22-I, 1-(6-(2-hydroxy-2-(3-methyl-2-oxo-2,3-dihydrobenzo[d]oxazol-5-yl)ethyl)-5,6,7,8-tetrahydropyrido[4,3-d]pyrimidin-2-yl)-1H-indole-4-carbonitrile]
700 nM	Cn1c(=O)oc2ccc(C(O)CN3CCc4nc(-n5ccc6c(C#N)cccc65)ncc4C3)cc21 (single isomer, unassigned) [Example 22-II, 1-(6-(2-hydroxy-2-(3-methyl-2-oxo-2,3-dihydrobenzo[d]oxazol-5-yl)ethyl)-5,6,7,8-tetrahydropyrido[4,3-d]pyrimidin-2-yl)-1H-indole-4-carbonitrile]
210 nM	Cc1c(C(O)CN2CCc3nc(-n4ccc5c(C#N)cncc54)ncc3C2)ccc2c1COC2=O (single isomer, unassigned) [Example 42-II, 1-(6-(2-hydroxy-2-(4-methyl-1-oxo-1,3-dihydroisobenzofuran-5-yl)ethyl)-5,6,7,8-tetrahydropyrido[4,3-d]pyrimidin-2-yl)-1H-pyrrolo[2,3-c]pyridine-4-carbonitrile]
21 nM	O=C1OCc2cc(CN3CCc4cc(Nc5ccc6c(c5)COC6=O)ccc4C3)ccc21 [Example 15, 5-((6-((1-oxo-1,3-dihydroisobenzofuran-5-yl)amino)-3,4-dihydroisoquinolin-2(1H)-yl)methyl)isobenzofuran-1(3H)-one]
490 nM	Cc1c(C(CO)N2CCc3cc(Nc4ccc(C#N)c(F)c4)ccc3C2)ccc2c1COC2=O (single isomer, unassigned) [Example 33-I, 2-fluoro-4-((2-(2-hydroxy-1-(4-methyl-1-oxo-1,3-dihydroisobenzofuran-5-yl)ethyl)-1,2,3,4-tetrahydroisoquinolin-6-yl)amino) benzonitrile]
4900 nM	Cc1c(C(O)CN2CCc3nc(-n4ncc5c(C#N)ccnc54)ncc3C2)ccc2c1COC2=O (single isomer, unassigned) [Example 35-II, 1-(6-(2-hydroxy-2-(4-methyl-1-oxo-1,3-dihydroisobenzofuran-5-yl)ethyl)-5,6,7,8-tetrahydropyrido[4,3-d]pyrimidin-2-yl)-1H-pyrazolo[3,4-b]pyridine-4-carbonitrile]
550 nM	Cc1c(CN2CCc3cc(Nc4cccc(F)c4C#N)ccc3C2)ccc2c1COC2=O [Example 39, 2-fluoro-6-((2-((4-methyl-1-oxo-1,3-dihydroisobenzofuran-5-yl)methyl)-1,2,3,4-tetrahydroisoquinolin-6-yl)amino)benzonitrile]
790 nM	Cc1c(CN2CCc3nc(Nc4ccc5c(c4C)COC5=O)ncc3C2)ccc2c1COC2=O [Example 5, 4-methyl-5-((2-((4-methyl-1-oxo-1,3-dihydroisobenzofuran-5-yl)amino)-7,8-dihydropyrido[4,3-d]pyrimidin-6(5H)-yl)methyl)isobenzofuran-1(3H)-one]
